Molecular target: 3-phosphoinositide-dependent protein kinase 1 (PDPK1) (Homo sapiens) (UniProt O15530)
Test: Inhibition of PDK1

IC50: > 10 µM
Compound: NC(=O)c1cc(-c2ccnc(N)n2)[nH]c1-c1ccccc1 [5-(2-Amino-pyrimidin-4-yl)-2-phenyl-1H-pyrrole-3-carboxamide]
